Measurements as given in article PMC9283420, “Conformational changes in the catalytic region are responsible for heat-induced activation of hyperthermophilic homoserine dehydrogenase” (Communications Biology, 2022).

Legend:
[1] = biological target: T1, mature StHSD (heat-treated) (Sulfurisphaera tokodaii, UniProt F9VNG5); test: initial velocity of NADH production at […] nm; Morrison fit; assay type: biochemical; conditions: read-out: apparent Ki
T1 construct: gene hom; full length (residues 1-304 described), recombinant from plasmid pSTHSD in E. coli BL21, matured by heat treatment (343 K); homodimer
T1 sequence (F9VNG5 1-304): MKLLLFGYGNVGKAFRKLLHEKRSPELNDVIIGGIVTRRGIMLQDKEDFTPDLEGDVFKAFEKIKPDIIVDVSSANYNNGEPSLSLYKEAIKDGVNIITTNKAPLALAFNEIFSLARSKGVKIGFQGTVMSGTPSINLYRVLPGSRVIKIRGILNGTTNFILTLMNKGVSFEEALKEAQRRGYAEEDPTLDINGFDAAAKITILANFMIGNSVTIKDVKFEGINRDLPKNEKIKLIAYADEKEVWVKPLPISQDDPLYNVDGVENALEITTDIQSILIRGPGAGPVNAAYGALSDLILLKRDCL

[2] = biological target: T2, immature StHSD (not heat-treated) (Sulfurisphaera tokodaii, UniProt F9VNG5); test: as above; assay type: biochemical; conditions: read-out: apparent Ki
T2 construct: gene hom; full length (residues 1-304 described), recombinant from plasmid pSTHSD in E. coli BL21 at 310 K, purified without heat treatment; homodimer with C303-C303 intersubunit disulfide (oxidized)
T2 sequence (F9VNG5 1-304): T1 sequence (F9VNG5 1-304)

[3] = biological target: the molecule itself; test: crystal structure; hanging-drop vapor diffusion at 295 K; immature enzyme as apo-form (IM) and with NADP+ and 1,4-butanediol (IM/NADP/BU); space group P2(1), two subunits in the asymmetric unit

Q: For `NC(=O)c1ccc[n+]([C@@H]2O[C@H](COP(=O)(O)OP(=O)(O)OC[C@H]3O[C@@H](n4cnc5c(N)ncnc54)[C@H](OP(=O)(O)O)[C@@H]3O)[C@@H](O)[C@H]2O)c1` [NADP^+], which Ki [1] is on record?
A: 48 ± 1.2 µM

Q: And the Ki [2]?
A: 26 ± 1.7 µM

B1: homoserine dehydrogenase from the hyperthermophilic archaeon Sulfurisphaera tokodaii strain 7 (StHSD), immature enzyme (enzyme)
chain: T1 sequence (F9VNG5 1-304)
modifications: disulfide bond between the C303 residues of the two subunits
notes: homoserine dehydrogenase, Sulfurisphaera tokodaii strain 7; The same recombinant enzyme after heat treatment is called the mature enzyme (cited structures 4YDR, 5X9D); The IM/NADP/BU crystal form also holds NADP+ and 1,4-butanediol; also called immature StHSD; IM/NADP/BU; source: Blue Sepharose for the apo-form
Q: With B1 as the molecule, how does the “stoichiometry N” value [3] read?
A: 2 subunits
